Measured values: patent US20240366785A1 (priority 2021, published 2024)

Test system: human patients having XLMTM
Assay: Ursodiol treatment of hyperbilirubinemia after resamirigene bilparvovec
Assay type: in vivo
Procedure: A subject (115-9001) experienced an SAE of Grade 3 cholestasis which required hospitalization. The subject's medical history included cholestasis and elevated total bilirubin. Approximately 5 weeks after dosing, the subject had elevated direct bilirubin levels (Grade 2) which was treated with ursodiol and resolved 6 weeks later. Approximately 11 weeks after dosing, the subject experienced cholestasis and decision was made to hospitalize the subject 9 days after cholestasis was reported. The cholestasis resolved after approximately 12 weeks. Cholestasis was considered by the Investigator to be possibly related to resamirigene bilparvovec infusion. The subject's baseline history of cholestasis supports underlying disease as causal factor.
Cholestasis and hyperbilirubinemia are considered identified risks associated with resamirigene bilparvovec. Therefore, for subjects receiving resamirigene bilparvovec, ursodiol is recommended as prophylaxis for possible cholestatic syndromes. Ursodiol (ursodeoxycholic acid) is an enterally administered hydrophilic bile acid that can decrease the hydrophobic bile acid content within bile. […]

C[C@H](CCC(=O)O)[C@H]1CC[C@H]2[C@@H]3[C@@H](O)C[C@@H]4C[C@H](O)CC[C@]4(C)[C@H]3CC[C@]12C [ursodiol, Ursodeoxycholic acid]
Transient hyperbilirubinemia following resamirigene bilparvovec: response to ursodiol (in some cases): responsive | Elevated direct bilirubin (Grade 2) treated with ursodiol: time to resolution (subject 115-9001, after resamirigene bilparvovec 3.0×10^14 vg/kg): 6 weeks
